Reference: patent publication US12473259B2, “Anhydrous crystal of monosodium n-(2-ethylsulfonylamino-5-trifluoromethyl-3-pyridyl)cyclohexane carboxamide” (ISHIHARA SANGYO KAISHA, LTD., priority 2019, dated 2025)

Assays:
Type in all cases: physicochemical
[1] = Tapped density and bulk density, powder tester (Japanese Pharmacopoeia Method 3); conditions: 100 mL cylindrical container; for Tapped density: 100 times per 3 minutes
Procedure: Regarding the anhydrous crystal obtained in Production Example 1 and the monohydrous crystal as a raw material, the bulk density and the tapped density were measured with a powder tester type A.B.D-72 (TSUTSUI SCIENTIFIC INSTRUMENTS Co., Ltd.) in accordance with of Method 3 (measuring vessel) of Determination of Bulk Density and Method 3 of Determination of Tapped Density mentioned in the Japanese Pharmacopoeia, Seventeenth Edition. Specifically, regarding the bulk density, an excess of a sample was freely fallen through the apparatus into a cylindrical container (volume of 100 mL, inner diameter of 5.05 cm) until a container overflowed. Then, the edge of a spatula standing vertically in contact with the top surface of the container was moved smoothly, and an excess of the sample was carefully slashed off from the top surface of the container. The bulk density was calculated by dividing the mass (g) of the sample in the container by a volume of 100 mL. The tapped density was, specifically, measured as a density when the sample was filled in a cylindrical container (volume of 100 mL, inner diameter of 5.05 cm) in the same manner as for the bulk density measurement and was fallen using the apparatus at a rate of 100 times per 3 minutes.

[2] = BET specific surface area by nitrogen adsorption method; conditions: BET multipoint method, nitrogen gas
Procedure: The specific surface area was measured by a nitrogen adsorption method using Flow sorb II 2300 (Shimadzu Corporation). Specifically, the BET specific surface area was measured by a BET multipoint method by nitrogen adsorption under the following conditions: • Sample amount: 0.2 g • Deaeration condition: 150° C. (anhydrous), 80° C. (monohydrous) • Adsorption gas: nitrogen gas

[3] = Observation of particle shape by scanning electron microscopy; conditions: SEM micrograph
Text: Micrographs of particles of the anhydrous crystal of the present invention and the monohydrous crystal were taken using scanning electron microscopy (SEM) (Hitachi, Ltd., S-3200N).

[4] = Long diameter, short diameter and aspect ratio by particle shape image analyzer PITA-3; conditions: for Aspect ratio (d50): long diameter (d50)/short diameter (d50)
Procedure: Regarding the anhydrous crystal obtained in Production Example 1 and the monohydrous crystal as a raw material, the long diameter and the short diameter were measured using a particle shape image analyzer PITA-3 (SEISHIN ENTERPRISE Co., Ltd.), and the aspect ratio was calculated.
The longest diameter in the particle was regarded as the long diameter, and the shortest diameter in the particle was regarded as the short diameter. The aspect ratio was calculated by the following formula: Aspect ratio=long diameter/short diameter
Specifically, measurement was performed under the following conditions:
Carrier liquid: n-hexane+lecithin
Dispersion condition: ultrasonic wave for 5 minutes
Flow rate of first carrier liquid: 500.00 μL/second
Flow rate of second carrier liquid: 500.00 μL/second
Flow rate of sample dispersion liquid: 0.42 μL/second
Observation magnification: 10 times
Light control filter: None
Number of particles observed: 6,992 (anhydrous crystal) or 9,628 (monohydrous crystal)

[5] = Measurement of solubility in distilled water (HPLC); conditions: room temperature, shaken 1 hour, saturated solution
Procedure: After 10 mL of distilled water was put into 0.5 g of the anhydrous crystal obtained in Production Example 1 or the monohydrous crystal as a raw material, the solution was horizontally shaken with a shaker (manufactured by TAITEC CORPORATION, STRONG SHAKER SR-2DS) at room temperature and at a shaking speed of 150 strokes/min and a shaking width of 4 cm/stroke for 1 hour. Thereafter, a precipitate was confirmed to be remained, and centrifugation (3,000 rpm×10 minutes) was performed to take a supernatant, followed by filtration using a membrane filter to obtain a supernatant of a saturated solution. 2 mL of the supernatant of the saturated solution was weighed in a 20 mL volumetric flask to make a constant volume with a mobile phase, and this was used as a sample solution, followed by measurement of solubility under the following HPLC conditions: • Analyzer: HPLC ACQUITY Arc system (manufactured by Waters K. K.) • Mobile phase: acetonitrile/water/acetic acid=50/49.5/0.5, v/v • Detector: ultraviolet spectrophotometer λ=276 nm (1 Au/V) • Column: Nucleosil 5 C18 (4.6 φ×250 mm) (manufactured by MACHEREY-NAGEL GmbH & Co. KG) • Column temperature: 50° C. • Flow rate: 1.075 ml/min • Injection volume: 20 μL • Measurement time: 40 minutes

[6] = Angle of repose (Japanese Pharmacopoeia); conditions: compared with the monohydrous crystal
Procedure: Regarding the particles of the anhydrous crystal obtained in Production Example 1 and the monohydrous crystal, the angle of repose was measured in accordance with Angle of repose mentioned in the Japanese Pharmacopoeia, Seventeenth Edition.

Row | Bulk density [1] [g/mL] | Tapped density [1] [g/mL] | Specific surface area [2] [m^2/g] | Particle shape [3] | Long diameter (d50) [4] [μm] | Short diameter (d50) [4] [μm] | Aspect ratio (d50) [4] | Solubility [5] [µg/mL] | solubility at 1 h ([5]; water, thermodynamic from solid) [µg/mL] | SMILES | Angle of repose [6]
1 | 0.289 | 0.367 | 3.38 | massive | 6.09 | 3.34 | 1.82 | 204 | – | CCS(=O)(=O)Nc1ncc(C(F)(F)F)cc1NC(=O)C1CCCCC1.[Na] [Anhydrous crystal, monosodium N-(2-ethylsulfonylamino-5-trifluoromethyl-3-pyridyl)cyclohexane carboxamide] | smaller than the angle of repose of the particle of the monohydrous crystal
2 | 0.18 | 0.207 | 4.36 | needle like | 15.80 | 3.19 | 4.95 | – | 160 | CCS(=O)(=O)Nc1ncc(C(F)(F)F)cc1NC(=O)C1CCCCC1.[Na] [Monohydrous crystal, monosodium N-(2-ethylsulfonylamino-5-trifluoromethyl-3-pyridyl)cyclohexane carboxamide] | –
